Columns and labels:
[1] = IR700 at absorption maximum 689 nm; Photofrin 630 nm; Foscan 652 nm; NPe6 654 nm; cited from earlier work
3T3/HER2+ cells = assay: Photoimmunotherapy (PIT) phototoxicity, LIVE/DEAD assay; type: cell-based; details: 200 nM, equivalent IR700 concentration of conjugate
Method: Cells were grown in RPMI 1640 supplemented with 10% fetal bovine serum and 1% penicillin/streptomycin in tissue culture flasks in a humidified incubator at 37° C. in an atmosphere of 95% air and 5% carbon dioxide.
Culture medium was replaced with phenol red-free medium after washing with phosphate buffered saline (PBS).

[2] = Excretion of free and catabolized IR700; details: in vivo
[3] = Extinction coefficient of photosensitizers; type: physicochemical
From the text: Currently commercially available from LI-COR (Lincoln, Nebr.). IR700 has several favorable chemical properties. Amino-reactive IR700 is a relatively hydrophilic dye and can be covalently conjugated with an antibody using the NHS ester of IR700. IR700 also has more than 5-fold higher extinction coefficient (2.1×10^5 M^−1cm^−1 at the absorption maximum of 689 nm), than conventional photosensitizers such as the hematoporphyrin derivative Photofrin® (1.2×10^3 M^−1cm^−1 at 630 nm), meta-tetrahydroxyphenylchlorin; Foscan® (2.2×10^4 M^−1cm^−1 at 652 nm), and mono-L-aspartylchlorin e6; NPe6/Laserphyrin® (4.0×10^4 M^−1cm^−1 at 654 nm).

A431 tumors = assay: In vivo nanodrug-delivery after PIT (super EPR); design: species or system mice
Method: In vivo nanodrug-delivery after photoimmunotherapy. Six-week-old to 8-week-old female homozygote athymic nude mice were purchased from Charles River (National Cancer Institute Frederick). During treatment, mice were anesthetized with isoflurane. Two million A431 cells were injected subcutaneously in the right and left dorsums of each mouse. Five days after cell injection, 100 μg of Pan-IR700 was administered intravenously, and 1 day later, either side of tumor was irradiated with NIR light from a red-light-emitting diode at wavelengths of 670-690 nm and a power density of 10-100 J cm^−2, as measured with an optical power meter (PM 100 (Thorlabs)). One hour after PIT, Pan-IR800 (100 μg), Qtracker 800 Non-Targeted Quantum dots (32.5 pmol), or DaunoXome (30 mg kg^−1) were injected intravenously, and the in vivo fluorescence images were obtained with a Pearl Imager (LI-COR Biosciences) and a Maestro Imager (CRi). For MR imaging, SPIO (Feridex) was administered intravenously 1 h post-PIT and MR images were obtained. The tumors were excised, and frozen or paraffin-embedded for histological study and fluorescence microscopy study after ex vivo imaging.
In vivo fluorescence imaging. Five days after injection of two million A431 or 3T3-HER2 cells in right and left dorsums, and seven days after MDA-MB-468 cells injection in mammary pads, tumor volumes of approximately 75 mm^3 were selected. Signals of IR700 and IR800 was detected with a fluorescence camera (Pearl Imager, LI-COR Biosciences) using the 700 and 800 nm fluorescence channel Qdot800 was detected with Maestro in vivo Imaging System (CRi) using a band-pass filter, which ranges between 575 to 605 nm (excitation) and a long-pass NIR filter over 800 nm (emission). Fluorescence images of daunorubicin were also obtained with Maestro using a band-pass filter from 503 to 555 nm (excitation) and a long-pass green filter over 580 nm (emission). The tunable emission filter was automatically stepped in 10 nm increments from 650 to 950 nm and from 500 to 800 nm for the NIR and green filter sets at constant exposure. The spectral fluorescence images consist of autofluorescence spectra and the spectra from Qdot800 and daunorubicin, which were then unmixed, based on their spectral patterns using commercial software (Maestro software; CRi). Mice were sacrificed with carbon dioxide immediately after in vivo imaging. The tumors were excised, and frozen or paraffin-embedded for histological study and fluorescence microscopy study after ex vivo imaging.
Fluorescence microscopy. Ten-μm-thick frozen or paraffin sections were prepared and fluorescence in tumor sections was detected using an Olympus BX81 microscope (Olympus America, Inc., Melville, N.Y.) equipped with the following filters: excitation wavelength 590 to 650 nm, and 480 to 550 nm, emission wavelength 662.5 to 747.5 nm, 765 to 855 nm, and 590 nm long pass for IR700, Qdot800, and daunorubicin, respectively. Transmitted light differential interference contrast images were also acquired. H&E staining and Prussian Blue staining were performed according to standard protocol.
Optimal timing of second shot. To determine the optimal timing of second shot, Pan-IR800 (100 μg) was administered intravenously into A431 bearing mice at 1, 6, and 24 h after PIT treatment, and the dynamic imaging for 1 h was carried out with Pearl Imager according to the protocol described above.

MDA-MB-468 tumors = assay: In vivo delivery of Pan-IR800 after Pan-IR700 PIT; design: species or system mice; details: 50 J/cm2 to right side tumor; agent 1 h after PIT
From the text: In vivo fluorescence imaging. Five days after injection of two million A431 or 3T3-HER2 cells in right and left dorsums, and seven days after MDA-MB-468 cells injection in mammary pads, tumor volumes of approximately 75 mm^3 were selected. Signals of IR700 and IR800 was detected with a fluorescence camera (Pearl Imager, LI-COR Biosciences) using the 700 and 800 nm fluorescence channel Qdot800 was detected with Maestro in vivo Imaging System (CRi) using a band-pass filter, which ranges between 575 to 605 nm (excitation) and a long-pass NIR filter over 800 nm (emission). Fluorescence images of daunorubicin were also obtained with Maestro using a band-pass filter from 503 to 555 nm (excitation) and a long-pass green filter over 580 nm (emission). The tunable emission filter was automatically stepped in 10 nm increments from 650 to 950 nm and from 500 to 800 nm for the NIR and green filter sets at constant exposure. The spectral fluorescence images consist of autofluorescence spectra and the spectra from Qdot800 and daunorubicin, which were then unmixed, based on their spectral patterns using commercial software (Maestro software; CRi). Mice were sacrificed with carbon dioxide immediately after in vivo imaging. The tumors were excised, and frozen or paraffin-embedded for histological study and fluorescence microscopy study after ex vivo imaging. […]

## Photofrin®
[1]
  extinction coefficient: 1200 M⁻¹ cm⁻¹

## IRDye® 700DX [IR700]
3T3/HER2+ cells
  phototoxicity of dye alone: did not incorporate into the cells or induce phototoxcity in cells
[1]
  extinction coefficient: 210000 M⁻¹ cm⁻¹
[2]
  organ accumulation: without accumulation in any specific organ
  time to excretion into urine: ≤ 1 h
[3]
  extinction coefficient higher than conventional photosensitizers: more than 5 fold

## Oc1cccc(-c2c3nc(c(-c4cccc(O)c4)c4ccc([nH]4)c(-c4cccc(O)c4)c4nc(c(-c5cccc(O)c5)c5ccc2[nH]5)CC4)C=C3)c1 [Foscan®, meta-tetrahydroxyphenylchlorin]
[1]
  extinction coefficient: 22000 M⁻¹ cm⁻¹

## C=Cc1c(C)c2cc3nc(c(CC(=O)N[C@@H](CC(=O)[O-])C(=O)[O-])c4[nH]c(cc5nc(cc1[nH]2)C(C)=C5CC)c(C)c4C(=O)[O-])[C@@H](CCC(=O)[O-])[C@@H]3C.[Na+].[Na+].[Na+].[Na+] [NPe6/Laserphyrin®, mono-L-aspartylchlorin e6]
[1]
  extinction coefficient: 40000 M⁻¹ cm⁻¹

## Pan-IR800: panitumumab conjugated to IRDye 800CW
A431 tumors; Pan-IR800 given 1, 6, and 24 h after PIT
  change of perfusion by PIT with time after treatment: completely stopped within 24 h
A431 tumors; agent i.v. 1 h after PIT of contralateral tumor
  uptake/signal in control tumors without NIR light: no change on signal intensities
A431 tumors; agent i.v. 1 h after Pan-IR700 PIT
  accumulation in PIT-treated tumors: facilitated the permeability
A431 tumors; mouse, in vivo
  signal intensities in PIT-treated tumors versus light dose: increased with time in a light dose-dependent manner
  tumor uptake when given 24 h after PIT: cannot be taken up by the tumor
MDA-MB-468 tumors
  tumor shown in dynamic images: only the right sided tumor was clearly shown up within 10 min
